What all share (type): in vivo
Assay [1] has as its system wheat powdery mildew (Blumeria graminis). Briefly: Field test of frequency of attack on winter wheat. The settings on record: 125 g of active ingredient/ha per application (A and B), same conditions as Table 1. The protocol:
(§1) The compounds were tested for their activity against wheat powdery mildew (Blumeda graminis).
(§2) Winter wheat (Appolo variety) was planted in France (department of Marne) in 1 m^2 plots, at the rate of 200 kg/ha (soil: coloured rendzina) at a depth of 3 cm. The compounds of the invention were applied to the wheat plants in two portions: Application A at the 1 cm ear stage and then Application B at the second visible node stage. Each of these applications was carried out by spraying an aqueous solution of the compounds at a dose of 125 g of active ingredient/ha.
(§3) During Application A, the intensity of attack by the fungus Blumeria graminis is estimated at 3% of the total foliar volume.
Under the same conditions, a test of frequency of attack was performed by evaluating the percentage of second leaf (from the ear) attacked by the fungus Blumeria graminis.

Assay [2] has the same test system. Briefly: Field test of intensity of attack on winter wheat. To be noted: 125 g of active ingredient/ha per application (A and B), 52 days after Application B, winter wheat field plots. The procedure: as §1, §2, §3
The tests of intensity of attack are carried out 52 days after Application B by evaluating the percentage of affected surface area of the second leaves (counted from the ear).

Assay [3] has as its system barley powdery mildew (Blumeria graminis f. sp. hordei). Briefly: Greenhouse preventive synergy test, barley powdery mildew. The protocol: (§4) This example gives an illustration of the synergistic effect obtained using the compounds according to the invention in the form of a mixture with compounds of the strobilurin type, in particular trifloxystrobin, triazole, in particular fluquinconazole. The compounds according to the invention were tested in a greenhouse under preventive conditions.
(§5) The combinations of active ingredients in Table 4 were evaluated.
(§6) The compounds and mixtures tested were sprayed on wheat plants:
(§7) volume for application equivalent to 250 l/ha.
(§8) On the day following the application, the wheat plants were inoculated with powdery mildew (Blumeria graminis f. sp. tritici), brown rust (Puccinia recondita), glume blotches (Septoria tritici and Septoria nodorum) and the barley plants with powdery mildew (Blumeria graminis f. sp. hordei). Once the diseases had developed, the evaluation was made by determining the extent of disease per pot.
(§9) The level of synergy was calculated using the Colby formula in order to calculate the theoretical efficacy and to compare it to the observed efficacy:
(§10) Theoretical efficacy of A+B=efficacy of A (%)+efficacy of B (%)−[efficacy of A (%)×efficacy of B (%)/100]

Assay [4] deals with wheat glume blotch (Septoria tritici). The assay can be described thus: Greenhouse preventive synergy test, wheat glume blotch (Septoria tritici). The protocol: as §4, §5, §6, §7, §8, §9, §10
Assay [5] deals with powdery mildew (Blumeria graminis f. sp. tritici) strains resistant to strobilurin derivatives. Briefly: Greenhouse test on pathogenic strains resistant to strobilurin derivatives. To be noted: wheat, 13 days of incubation. The procedure: This example gives an illustration of the biological efficacy of the compounds of formula (I) on pathogenic strains resistant to strobilurin derivatives.
The experiment was performed in a greenhouse.
Resistant strains were isolated and samples taken in 2001 in the north of Germany in the Bremen region in a place treated with pyraclostrobin and with picoxystrobin. These strains are characterized by their resistance to these strobilurin-type compounds. They were then kept in a controlled-environment chamber on wheat plants (Kanzler variety) treated with trifloxystrobin.
The tested compounds were sprayed on the wheat plants using solutions for application diluted in water to a volume equivalent to 250 l/ha. 24 h later, the plants were inoculated with powdery mildew (Blumeria graminis f. sp. tritici).
The extent of the disease was evaluated on each plant after 13 days of incubation.

Assay [6] has as its system wheat glume blotch (Septoria nodorum). Briefly: Greenhouse preventive synergy test, wheat glume blotch (Septoria nodorum). The procedure:
as §4, §5, §6, §7, §8, §9, §10

In assay [7] the test system is wheat powdery mildew (Blumeria graminis f. sp. tritici). Briefly: Greenhouse preventive synergy test, wheat powdery mildew. The procedure: as §4, §5, §6, §7, §8, §9, §10
Assay [8] relates to wheat brown rust (Puccinia recondita). Briefly: Greenhouse preventive synergy test, wheat brown rust. The protocol:
as §4, §5, §6, §7, §8, §9, §10

Consider `CCCc1c(OCC)oc2ccc(I)cc2c1=O` [Compound 1, 2-ethoxy-6-iodo-3-propylbenzopyran-4-one], for which, in assay [1], the “% of second leaf attacked” value amounted to 28.0%. Besides, the “% affected surface area per (second) leaf” value in assay [2] is on record as 0.56%. Moreover, the Observed efficacy worked out at 50% in assay [3] (Table 6, 12 g/ha); 50% in assay [3] (Table 11, 16 g/ha); 75% in assay [3] (Table 11, 25 g/ha); 0% in assay [4] (Table 8, 50 g/ha); 0% in assay [6] (Table 9, 50 g/ha); 25% in assay [7] (Table 5, 6 g/ha). Besides, the Observed efficacy stood at 25% in assay [7] (Table 10, 6 g/ha); 50% in assay [7] (Table 10, 16 g/ha); 75% in assay [7] (Table 10, 25 g/ha); 0% in assay [8] (Table 7, 50 g/ha). Moreover, the “Percentage of leaves affected by powdery mildew” value in assay [5] (31 g/ha) and in assay [5] (62 g/ha) was 0% throughout.
`CCCOc1oc2ccc(I)cc2c(=O)c1CCC` [Compound 2, 6-iodo-2-propoxy-3-propylbenzopyran-4-one]: the “% affected surface area per (second) leaf” value in assay [2] is 2.53%.
On to `CCCCOc1oc2ccc(I)cc2c(=O)c1CCC` [Compound 3, 2-butoxy-6-iodo-3-propylbenzopyran-4-one], for which the “% of second leaf attacked” value in assay [1] turned out to be 54.0%. Also, in assay [2], the “% affected surface area per (second) leaf” value was 2.51%.
On the same counts, the results for `Fc1ccc(Oc2ccnc3cc(Cl)cc(Cl)c23)cc1` [Compound B, quinoxyfen] are 73.3% and 4.91%.
Turning to `CON=C(C(=O)OC)c1ccccc1CON=C(C)c1cccc(C(F)(F)F)c1` [Trifloxystrobin], the Observed efficacy is 0% in assay [3] (Table 11, 16 g/ha); 0% in assay [3] (Table 11, 62 g/ha); 30% in assay [7] (Table 10, 16 g/ha); 40% in assay [7] (Table 10, 31 g/ha); 50% in assay [7] (Table 10, 62 g/ha). Besides, the “Percentage of leaves affected by powdery mildew” value in assay [5] (31 g/ha), in assay [5] (62 g/ha), in assay [5] (125 g/ha) and in assay [5] (250 g/ha) was 100% each time.
Turning to `O=c1c2cc(F)ccc2nc(-n2cncn2)n1-c1ccc(Cl)cc1Cl` [fluquinconazole], the Observed efficacy was determined as 25% in assay [3] (Table 6, 12 g/ha); 25% in assay [3] (Table 6, 25 g/ha); 75% in assay [3] (Table 6, 62 g/ha); 60% in assay [4] (Table 8, 100 g/ha); 75% in assay [6] (Table 9, 100 g/ha); 0% in assay [7] (Table 5, 6 g/ha). Moreover, the Observed efficacy is on record as 0% in assay [7] (Table 5, 12 g/ha); 0% in assay [7] (Table 5, 31 g/ha); 60% in assay [8] (Table 7, 100 g/ha).

The values above are taken from patent publication US20040192672A1, “Iodobenzopyran-4-one derivatives having fungicidal activity” (priority 2001, published 2004).
